“And” between values parts separate entries of the source, which are not always exact repeats. Equal entries are not always repeated.
Assays:
[1] = system: phospho-Tyr627 GAB1; test: Inhibition of GAB1 Y627 phosphorylation in T47D cells; type: cell-based, human; conditions: 20 µM, 4 hr, HGF stimulated
Protocol: For all biological assays, hit compounds were added at 20 µM concentration directly into the culture media of the cells for 4 hr following a 16 hr incubation of T47D cells without FBS. Cells were stimulated with HGF for 20 min at 50 ng/ml. Following this treatment, cells were lysed as previously published and equal amounts of total cell lysate were loaded on a pSer^312-IRS-1/Total IRS-1 Meso Scale Discovery plate as described by the manufacturer. The plate was read using a Sector Imager 2400A instrument (Meso Scale Discovery protein profiling system, Gaithersburg, MD). For the measurement of GAB1 phosphorylation, T47D cells were treated as for the phosphorylation of IRS1 evaluation. […] Each experiment was performed at least three times.

[2] = target: T1, human GAB1 PH domain (Homo sapiens, UniProt Q13480); test: SPR direct binding to GAB1 PH domain; conditions: for Kd: read-out: KD GAB1; for Kd / KD GAB1: SPR, immobilized PH domain GST-fusion, NB = No Binding; for Exp. ΔGbind: GAB1, derived from experimental KD (or Ki)
T1 sequence (Q13480 5-116 limits assumed): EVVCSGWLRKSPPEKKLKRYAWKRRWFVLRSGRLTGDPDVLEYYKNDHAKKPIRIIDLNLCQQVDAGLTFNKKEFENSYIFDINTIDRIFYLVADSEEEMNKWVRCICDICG
Protocol: (§3) Binding assays were performed using a Biacore 2000 instrument with the Biacore Control Software v3.2 and BIAevaluation v4.1 analysis software (Biacore, Piscataway, NJ) as previously described [51]. Briefly, the PH domain GST-fusion proteins were immobilized on a CM5 Sensorchip (Biacore BR-1000-12) using Biacore's Amine Coupling Kit (Biacore BR-1000-50) to a level of 10,000 Response units (RUs). Small molecule analytes at concentrations ranging from one tenth to ten times the predicted K D were injected at a high flow rate (30 µL/min). Dimethylsulfoxide (DMSO) concentrations in all samples and running buffer were 1% (v/v) or less. For the competitive binding assays and K i determination, PtdIns(3,4,5)P3-biotin labeled liposomes (Echelon Biosciences, Salt Lake City, UT) and SA chips were used with increasing concentrations of the compound tested. We did triplicate SPR assays for each concentration.

[3] = system: MDA-MB-231; test: Cellular proliferation (MTT) assay, MDA-MB-231; type: cell-based, human; conditions: for IC50: 4 days growth, MTT, IA = Inactive; for toxicity to MDA-MB-231 at 100 µM: data not shown
Protocol: (§1) T47D and MDA-MB-231 cells were maintained in bulk culture in Dulbecco's modified Eagle medium (DMEM) supplemented with 10% heat-inactivated fetal bovine serum (FBS), 4.5 g/L glucose, 100 U/mL penicillin and […] streptomycin in a 5% CO2 atmosphere. MCF-10A cells were maintained in MEGM with other conditions same as the cancer cell lines. […] Cells were confirmed to be mycoplasma free by testing them with an ELISA kit (Roche-Boehringer Mannheim, Indianapolis, IN). Our hit compounds were freshly prepared in DMSO at a stock concentration of 10 mM. For the evaluation of cellular proliferation, a standard 96-well micro-cytotoxicity assay was performed as described in reference. Briefly, the assay was set up by plating cells at 5,000–10,000 cells per well (depending on cell doubling time) for a growth period of 4 days. The identified hits were added directly to the media, dissolved in DMSO at various concentrations ranging from 1 to 200 µM. The endpoint was spectrophotometric determination of the reduction of 3-(4,5-dimethylthiazol-2-yl)-2,5-diphenyltetrazolium bromide. All assays were performed in triplicates.

[4] = system: T47D; test: Cellular proliferation (MTT) assay, T47D; type: cell-based, human; conditions: for IC50: 4 days growth, MTT, IA = Inactive; for toxicity to T47D at 100 µM: data not shown
Protocol: as §1

[5] = target: T2, human IRS1 PH domain (Homo sapiens, UniProt P35568); test: SPR direct binding to IRS1 PH domain; conditions: for Kd: read-out: KD IRS1; for Exp. ΔGbind: IRS1, derived from experimental KD
T2 sequence (P35568 12-115 limits assumed): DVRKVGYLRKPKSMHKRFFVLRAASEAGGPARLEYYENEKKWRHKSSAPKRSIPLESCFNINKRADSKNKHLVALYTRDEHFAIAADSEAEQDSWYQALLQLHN
Protocol: as §3

[6] = target: T1, human GAB1 PH domain; test: SPR competitive binding (PtdIns(3,4,5)P3-biotin liposomes), Ki, GAB1 PH domain; conditions: read-out: Ki GAB1, cells marked * (Ki measurement)
Protocol: as §3

[7] = system: MCF-10A; test: Cellular proliferation assay, MCF-10A non-tumorigenic cells; type: cell-based, human; conditions: data not shown
Protocol: (§2) Two human breast cancer cell lines and one normal breast cell line were used for this study: T47D ductal breast epithelial tumor cell line, MDA-MB-231 epithelial tumor cell line and MCF-10A non-tumorigenic epithelial cell line (American Type Culture Collection, Rockville, MD). T47D and MDA-MB-231 cells were maintained in bulk culture in Dulbecco's modified Eagle medium (DMEM) supplemented with 10% heat-inactivated fetal bovine serum (FBS), 4.5 g/L glucose, 100 U/mL penicillin and […] streptomycin in a 5% CO2 atmosphere. MCF-10A cells were maintained in MEGM with other conditions same as the cancer cell lines. Cells were passaged using 0.25% trypsin and 0.02% EDTA. Cells were confirmed to be mycoplasma free by testing them with an ELISA kit (Roche-Boehringer Mannheim, Indianapolis, IN). Our hit compounds were freshly prepared in DMSO at a stock concentration of 10 mM. For the evaluation of cellular proliferation, a standard 96-well micro-cytotoxicity assay was performed as described in reference. Briefly, the assay was set up by plating cells at 5,000–10,000 cells per well (depending on cell doubling time) for a growth period of 4 days. The identified hits were added directly to the media, dissolved in DMSO at various concentrations ranging from 1 to 200 µM. […]

[8] = system: MDA-MB-468 cell line; test: Cellular proliferation assay, MDA-MB-468; type: cell-based; conditions: cell marked ** in MDA-MB-231 column: MDA-MB-468 cell line used
Protocol: as §2

[9] = target: GAB2 PH domain (Homo sapiens, UniProt Q9UQC2); test: Follow-up binding to GAB2 PH domain; conditions: follow-up experiments
[10] = SPR, immobilized PH domain GST-fusion, NB = No Binding

Sequence of GAB2 PH domain (Q9UQC2 6-117 limits assumed): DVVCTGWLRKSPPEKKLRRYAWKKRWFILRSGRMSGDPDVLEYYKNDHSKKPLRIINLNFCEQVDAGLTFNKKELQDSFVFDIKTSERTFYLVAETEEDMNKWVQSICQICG

Kd [2] [µM] | IC50 [3] [µM] | IC50 [4] [µM] | Kd [5, 10] [µM] | SMILES | % pGAB1 inhibition [1] [%] | also measured
 | 40.3 ± 1.3 | 23.7 ± 2.7 | > 50 | O=S(=O)(NCc1csc2ccc(Cl)cc12)c1cc(S(=O)(=O)c2ccccc2)cs1 [GAB-001] | 55 | Exp. ΔGbind [2]: -6.91 kcal/mol; KD IRS1 [5, 10]: not to IRS1 PH domain; Ki [6]: 9.4 µM and 9.38 µM
2.1 ± 0.1 | 143 ± 11.6 | 138 ± 6.9 | 16.4 ± 4.3 | Cn1cnc(S(=O)(=O)Nc2ccccc2SCCS(=O)(=O)c2ccc(Cl)cc2)c1 [GAB-002] | 32 | 
2.2 ± 1.1 | 66.6 ± 4.6 | 19.4 ± 2.9 | > 50 | O=c1[nH]nc(SCc2csc(-c3ccccc3)n2)n1Cc1ccco1 [GAB-004] | 81 | Exp. ΔGbind [2]: -7.78 kcal/mol
> 50 | > 200 | > 200 | > 50 | CS(=O)(=NS(=O)(=O)c1ccc(-c2ccccn2)s1)c1ccc(Cl)cc1 (stereo not shown) [GAB-005] | 6 | 
> 50 |  | 101 ± 1.8 | > 50 | Cc1cc2ncc(-c3cnc(SCCS(=O)(=O)c4ccc(Cl)cc4)nc3)c(C)n2n1 [GAB-006] | 16 | 
42.3 ± 8.9 | 4.6 ± 0.7 | 20.1 ± 4.3 | 1.6 ± 0.2 | CS(=O)(=O)CCSc1ncccc1C(=O)Sc1ccc(Cl)cc1Cl [GAB-007] | 53 | Exp. ΔGbind [2]: -6.01 kcal/mol; Exp. ΔGbind [5]: -7.93 kcal/mol
> 50 | > 200 | 43.2 ± 3.2 | 16.2 ± 1.7 | O=S(=O)(NCc1csc(-c2cccs2)n1)c1ccc(N2CCOCC2)nc1 [GAB-008] | 8 | 
> 50 | 163 ± 6 | 97.6 ± 6.1 | > 50 | Cc1noc(C)c1NC(=O)NCc1csc(-c2cccs2)n1 [GAB-009] | 38 | 
> 50 | 66 ± 4.4 | 23.8 ± 4.2 | 0.12 ± 0.02 | Cc1onc(-c2ccccc2)c1-c1nc(CSc2nc3ccccc3[nH]2)no1 [GAB-010] | 92 | Exp. ΔGbind [5]: -9.51 kcal/mol
> 50 | > 200 | > 200 | > 50 | Cn1c(Cc2ccsc2)nnc1SCC(=O)Nc1cc(Cl)cc(Cl)c1 [GAB-011] | 24 | 
> 50 | > 200 | 119 ± 3.6 | > 50 | O=C(O)c1ccccc1C(=O)Nc1ccccc1SCCS(=O)(=O)c1ccc(Cl)cc1 [GAB-012] | 43 | killing of MDA-MB-231 cells at 50 µM [3]: did not effectively kill; toxicity to MDA-MB-231 at 100 µM [3]: not for T47D and MDA-MB-231; killing of T47D cells at 50 µM [4]: did not effectively kill; toxicity to T47D at 100 µM [4]: not for T47D and MDA-MB-231; toxicity to MCF-10A at 100 µM [7]: toxic
> 50 | > 200 | > 200 | > 50 | COc1cc(NS(=O)(=O)c2ccc(NS(=O)(=O)c3c(C)noc3C)cc2)nc(OC)n1 [GAB-013] | 27 | killing of MDA-MB-231 cells at 50 µM [3]: did not effectively kill; toxicity to MDA-MB-231 at 100 µM [3]: not for T47D and MDA-MB-231; killing of T47D cells at 50 µM [4]: did not effectively kill; toxicity to T47D at 100 µM [4]: not for T47D and MDA-MB-231; toxicity to MCF-10A at 100 µM [7]: toxic
> 50 |  | 178 ± 3.9 | > 50 | Cc1nnc(NS(=O)(=O)c2ccc(NS(=O)(=O)c3ccc4ccccc4c3)cc2)s1 [GAB-014] | 42 | IC50 [8]: 69.9 ± 0.1 µM
 |  | 125 ± 5.4 | 0.05 | CCCCCCCCCCCCc1ccc(S(=O)(=O)Nc2nnc(CC(=O)O)s2)cc1 [GAB-015] | 77 | Ki [6]: 13.1 ± 1.5 µM
0.9 ± 0.1 |  |  | 0.15 | CCCCCCCCCCCCc1ccc(S(=O)(=O)Nc2nnc(CC(=O)OCC)s2)cc1 [GAB-016] |  | targeting of GAB2 PH domain [9]: targets GAB2 PH domain as well; Exp. ΔGbind [2]: -8.31 kcal/mol; KD GAB1 [2]: nanomolar binding affinity; Exp. ΔGbind [5]: -9.38 kcal/mol
0.68 ± 0.03 |  |  | 0.05 | CCCCCCCCCCCCc1ccc(S(=O)(=O)Nc2nnc(C(=O)OCC)s2)cc1 [GAB-017] |  | Exp. ΔGbind [2]: -8.47 kcal/mol; KD GAB1 [2]: nanomolar binding affinity
 |  | 185 ± 2.5 | > 50 | CCCCCCCCCCCCc1ccc(S(=O)(=O)Nc2nnc(S(N)(=O)=O)s2)cc1 [GAB-018] | 71 | killing of MDA-MB-231 cells at 50 µM [3]: did not effectively kill; killing of T47D cells at 50 µM [4]: did not effectively kill; Ki [6]: 36.6 ± 5 µM
 |  | 39.4 ± 6.2 |  | CCc1ccc(C(=O)OC)cc1CSc1nnc(-c2ccc(C(F)(F)F)cc2)n1Cc1ccoc1 [GAB-019] | 91 | 
1.33 |  |  |  | CCCCCCCCCCCCc1ccc(S(=O)(=O)Nc2nncs2)cc1 [GAB-020] | 87 | 

SMILES | Kd [2] [µM] | IC50 [3] [µM] | IC50 [4] [µM] | Kd [5, 10] [µM] | % pGAB1 inhibition [1] [%] | also measured
CCCCCCCCCCCCCCCCCCOC[C@H](COP(=O)(O)OC1C(O)[C@@H](O)C(O)C[C@H]1O)OC (stereo partly shown) [DPIEL, reference compound] | 2.8 |  |  |  | 72 | 
